From ChEMBL document CHEMBL1201862, “PubChem BioAssay data set” (2004)
Activity calls are given as the source filed them.

Legend:
Beta-galactosidase = Beta-galactosidase (Escherichia coli, UniProt Q8VNN2); assay: PubChem AID 485352; format: functional
[1] = molecular target: T1, Type-1 angiotensin II receptor (Homo sapiens, UniProt P30556); assay: AT1 receptor antagonists, dose response, selectivity assay for APJ receptor antagonist project, cell-based, uHTS hits (AID 463214); format: functional;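 further: antagonist potency against angiotensin II stimulated AT1 response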
T1 sequence (P30556 whole entry): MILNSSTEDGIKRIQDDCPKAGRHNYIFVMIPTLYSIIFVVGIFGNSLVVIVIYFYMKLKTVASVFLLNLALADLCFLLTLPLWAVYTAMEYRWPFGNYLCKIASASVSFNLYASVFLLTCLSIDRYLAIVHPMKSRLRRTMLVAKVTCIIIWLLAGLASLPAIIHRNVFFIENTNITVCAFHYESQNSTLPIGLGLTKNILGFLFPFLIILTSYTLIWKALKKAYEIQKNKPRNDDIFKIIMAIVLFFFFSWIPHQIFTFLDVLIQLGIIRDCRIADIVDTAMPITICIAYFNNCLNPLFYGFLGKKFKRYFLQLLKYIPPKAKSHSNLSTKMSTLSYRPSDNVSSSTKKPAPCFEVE

[2] = molecular target: NAD-dependent protein deacylase sirtuin-5, mitochondrial (Homo sapiens, UniProt Q9NXA8); assay: SIRT5 desuccinylase inhibitors, dose response, biochemical, fluorescence imaging, cherry-pick, set 5 (AID 720591);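 further: desuccinylation of succinyl peptide AMC substrate read as fluorescence after trypsin release; potency of inhibitors that lower fluorescence and may act on trypsin instead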
[3] = A cytotoxicity screen of small molecule inhibitors of the PhoP region in Salmonella typhi identified in the primary screen. [Related pubchem assays: 1850, 1864, 1985 ]; format: functional
Paired box protein Pax-8 = Paired box protein Pax-8 (Homo sapiens, UniProt Q06710); assay: inhibitors of PAX8-driven TPO luciferase reporter, dose response, RMG-I cells, cherry-pick (AID 687027); format: functional, cell-based;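 further: luciferase reporter driven by Pax8 target thyroperoxidase promoter measured by SteadyGlo luminescence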
[4] = NIH:OVCAR-3 ovarian cancer cell cytotoxicity, dose response, PAX8 inhibitor project, plate reader, dry powder samples (AID 743044); format: functional, cell-based
[5] = cytotoxicity in OVCAR8 ovarian cancer cells, dose response, PAX8 project, cell-based, plate reader, dry powder samples (AID 743197); format: functional; conditions: OVCAR-8
[6] = molecular target: T2, Short transient receptor potential channel 4 (Mus musculus, UniProt Q9QUQ5); assay: mouse TRPC4 channel activators, dose response, cell-based, HEK293 TRPC4/mu-opioid, Fluo-4 calcium (AID 434937); format: functional
T2 sequence (Q9QUQ5 whole entry): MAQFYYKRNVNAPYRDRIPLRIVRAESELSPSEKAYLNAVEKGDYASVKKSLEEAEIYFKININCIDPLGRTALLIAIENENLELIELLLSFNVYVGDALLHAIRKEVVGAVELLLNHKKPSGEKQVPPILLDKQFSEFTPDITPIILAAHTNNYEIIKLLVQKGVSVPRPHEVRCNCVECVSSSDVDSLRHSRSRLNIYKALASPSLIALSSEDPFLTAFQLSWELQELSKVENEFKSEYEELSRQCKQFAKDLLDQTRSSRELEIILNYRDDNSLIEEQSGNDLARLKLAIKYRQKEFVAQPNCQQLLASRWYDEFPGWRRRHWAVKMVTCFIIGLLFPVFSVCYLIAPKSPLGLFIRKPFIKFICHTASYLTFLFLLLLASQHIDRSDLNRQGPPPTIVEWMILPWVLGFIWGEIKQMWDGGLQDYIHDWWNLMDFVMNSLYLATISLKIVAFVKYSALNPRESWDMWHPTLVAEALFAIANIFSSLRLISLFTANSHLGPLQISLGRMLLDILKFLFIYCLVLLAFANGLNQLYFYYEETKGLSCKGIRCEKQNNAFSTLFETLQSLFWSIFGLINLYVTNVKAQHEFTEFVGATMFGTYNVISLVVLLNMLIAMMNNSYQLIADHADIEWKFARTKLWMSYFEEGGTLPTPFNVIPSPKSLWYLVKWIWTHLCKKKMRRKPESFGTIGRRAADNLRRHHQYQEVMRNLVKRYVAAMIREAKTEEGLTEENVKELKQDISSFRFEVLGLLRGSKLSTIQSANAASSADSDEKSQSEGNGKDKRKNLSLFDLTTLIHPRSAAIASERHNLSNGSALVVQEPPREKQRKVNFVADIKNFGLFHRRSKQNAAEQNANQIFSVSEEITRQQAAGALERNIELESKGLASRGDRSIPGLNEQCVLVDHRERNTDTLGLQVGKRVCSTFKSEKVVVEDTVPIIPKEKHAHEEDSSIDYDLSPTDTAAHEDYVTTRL

[7] = molecular target: Delta-type opioid receptor (Homo sapiens, UniProt P41143); assay: Counterscreen for agonists of heterodimerization of the mu 1 (OPRM1) and delta 1 (OPRD1) opioid receptors: Luminescence-based cell-based high throughput dose response assay to identify agonists of OPRD1 homodimerization. [Related pubchem assays (depositor defined):AID504326, AID504355, AID504692, AID504904, AID504905]; format: functional
Mu-type opioid receptor = Mu-type opioid receptor (Homo sapiens, UniProt P35372); assay: Counterscreen for agonists of heterodimerization of the mu 1 (OPRM1) and delta 1 (OPRD1) opioid receptors: Luminescence-based cell-based high throughput dose response assay to identify agonists of OPRM1 homodimerization.; format: functional;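 further: U2OS cells expressing OPRM1 and beta-arrestin as split beta-galactosidase partners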
[8] = molecular target: 5-hydroxytryptamine receptor 5A (Homo sapiens, UniProt P47898); assay: Counterscreen for agonists of OPRM1-OPRD1 heterodimerization: luminescence-based cell-based high throughput dose response assay to identify agonists of 5-hydroxytryptamine (serotonin) 5A receptor (HTR5A). [Related pubchem assays (depositor defined):AID504326, AID504355, AID504692, AID504904, AID504905]; format: functional
[9] = molecular target: Nuclear receptor subfamily 5 group A member 2 (Homo sapiens, UniProt O00482); format: functional, cell-based;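 further: HEK293T cells transfected with LRH-1 and a StAR promoter luciferase reporter; potency for inhibitors that lower LRH-1 driven reporter light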
Steroidogenic factor 1 = Steroidogenic factor 1 (Homo sapiens, UniProt Q13285); assay: Counterscreen for inverse agonists of the liver receptor homolog-1 (LRH-1; NR5A2): Luminescence-based cell-based high throughput dose response assay to identify inverse agonists of the Steroidogenic Factor 1 Nuclear Receptor (SF1; NR5A1).; format: functional
[10] = StAR promoter reporter inhibition counter-screen, dose response, counter-screen for LRH-1 inverse agonist project, cell-based, luminescence, luciferase reporter (AID 651969); format: functional
Major prion protein = Major prion protein (Homo sapiens, UniProt P04156); format: functional, cell-based

Cc1ccc(S(=O)(=O)N/N=C/c2ccc3nccnc3c2)cc1
EC50 (Beta-galactosidase): > 40 µM (inactive) | IC50 [1]: > 40 µM (not active)

Cc1cc(Br)c(NC(=O)COC(=O)CC2CC3CCC2C3)c(Br)c1 (stereo not drawn)
AC50 [2]: 21.8 µM (active)

COC(=O)[C@@]12C[C@@H](CC(=O)NCc3ccccc3)C(=O)N(Cc3ccccc3)C1=CCC(C)(C)C2
AC50 [2]: 19.1 µM (active)

CC1=C(c2ccccc2)SC2=NCCN21
EC50 [3]: > 50 µM (active) | AC50 [2]: > 30 µM (inactive)

C[C@@H]1CCCCO[C@@H](CN(C)S(=O)(=O)c2ccc(F)cc2)[C@H](C)CN([C@H](C)CO)C(=O)c2cc(NS(=O)(=O)c3ccc(Cl)cc3)ccc2O1
AC50 (Paired box protein Pax-8): 5.05 µM (active) | AC50 [4]: 48.9 µM (active) | AC50 [5]: > 70 µM (inactive)

Cc1cccc(OCCC(=O)NCC(c2ccccc2)N(C)C)c1 (stereo not drawn)
EC50 [6]: 0.473 µM (active) | EC50 [7]: > 92.5 µM (inactive) | EC50 (Mu-type opioid receptor): > 92.5 µM (inactive) | EC50 [8]: > 92.5 µM (inactive)

CC1SC(C)C(=O)N(CC(=O)Nc2ccc3c(c2)OCO3)C1=O (stereo not drawn)
IC50 [9]: 35.9 µM (inactive) | IC50 (Steroidogenic factor 1): 35.9 µM (inactive) | IC50 [10]: 35.9 µM (inactive)

Cc1ccc2c(C)c(C(=O)N(Cc3cccs3)C3CCS(=O)(=O)C3)oc2c1 (stereo not drawn)
EC50 [6]: 2.66 µM (active) | EC50 [7]: 63.6 µM (inactive) | EC50 (Mu-type opioid receptor): > 92.5 µM (inactive) | EC50 [8]: > 92.5 µM (inactive)

CCc1cc2cccc(C)c2nc1SCC(=O)NNC(=O)c1ccco1
IC50 (Major prion protein): 3.73 µM (active) | IC50 (cells): > 138 µM (inactive)

CCCN(c1ccc(OCC)cc1)S(=O)(=O)c1ccc2c(c1)NC(=O)CO2
IC50 (Major prion protein): 13.1 µM (inactive) | IC50 (cells): > 138 µM (inactive)

CCCc1cc(=O)oc2c(C)c(OCC(=O)NC3CC(C)(C)NC(C)(C)C3)ccc12
IC50 [9]: 35.9 µM (inactive) | IC50 (Steroidogenic factor 1): 0.443 µM (active) | IC50 [10]: 35.9 µM (inactive)

Nc1nc(O)c2ncn([C@@H]3O[C@H](CNCc4ccc(OCCCN5CCOCC5)cc4)[C@@H](O)[C@H]3O)c2n1
AC50 [2]: > 30 µM (inactive)
